Values joined by “and” are separate entries in the source; they are usually repeats but may differ in a detail not shown here. Equal values may be shown once. Read-outs that look alike come from different tables or passages of the source.
Tests used:
[1] = test system: NCI/ADR-RES cells; test: cell proliferation, NCI/ADR-RES cells in culture; format: cell-based, human; conditions: 72 hours
[2] = clinical trials to date; cited from earlier work
[3] = test system: MCF-7 xenografts; test: MCF-7 xenografts in nude mice, M4N i.p. or oral; format: in vivo; conditions: 21 days systemic treatment, IP injection daily or oral feeding in food balls
Protocol: (§1) MCF-7 cells (a human mammary carcinoma cell line, obtainable from the ATCC P.O. Box 1549, Manassas, Va. 20108) were seeded into 24-well plates at 1.5×10^4 cells/well in 500 μl of Dulbecco's modified Eagle's medium (DMEM) containing 10% fetal bovine serum (FBS) and the antibiotics penicillin and streptomycin. Varying concentrations of M4N were added the next day. After incubation for an additional 3 days, cell proliferation was assessed by the MTT assay. […] The mice were assigned to a treatment group that received M4N dissolved in a 6% Cremaphor EL, 6% ethanol and 88% saline, and to a control group that received the vehicle only. […] Mice received a single daily 100 μL intraperitoneal (i.p.) injection containing 2 mg of M4N for 3 weeks. The control mice received an equal volume of the vehicle. […] The results from the individual mice were combined and the average tumor volume was determined. Statistical significance of the mean differences in tumor volume was assessed by Student's t-test.

[4] = test system: MDR1 mRNA and Pgp; test: Dox induction of MDR1 gene expression in MCF-7 cells; format: cell-based, human; conditions: MCF-7, 0.05 μM Dox with 5.0 μM M4N, two days
Protocol: (§2) Total RNA was isolated using the Trizol Reagent (Invitrogen, Carlsbad, Calif.). RT-PCR was carried out with the Superscript II One-Step RT-PCR system with Platinum Taq DNA Polymerase (Invitrogen) according to the manufacturer's protocol using oligonucleotide primers specific for MDR1: […]
Cultured cells were incubated in a solution of 10 mM EDTA and 10 mM EGTA in PBS and then harvested by scraping with a Teflon® cell scraper. The cells were pelleted and lysed in modified RIPA buffer [50 mM Tris-HCl (pH 7.4), 1% NP-40, 0.25% Na-deoxycholate, 150 mM NaCl, 1 mM EDTA (pH 8.0)] containing Protease Inhibitor Cocktail (Sigma Chemical Co.). The lysate was cleared by centrifligation and protein concentrations were determined with the Bio-Rad Protein Assay (Bio-Rad Laboratories, Hercules, Calif.). Protein samples were separated by SDS-PAGE and electroblofted to a Hybond enhanced chemiluminescence (ECL) nitrocellulose membrane (Amersham) with a semidry blotting apparatus and detected as described in the instruction manual of the ECL Western Blotting System (Amersham). The antibodies used were primary rabbit polyclonal antibodies against Pgp and cyclin B and a horseradish […] conjugated secondary antibody (Santa Cruz Biotechnology). Relative band intensities were measured with ImageJ software. […]

[5] = dogs and rabbits, subcutaneous, intravaginal and IV formulations; cited from earlier work
[6] = test system: MCF-7 cells; test: MTT cell proliferation assay, MCF-7 cells in culture; format: cell-based, human; conditions: 72 hours
Protocol: as §1

[7] = test system: NCI/ADR-RES cells; test: SRB cytotoxicity assay with median-effect / combination index analysis; format: cell-based, human; conditions: for IC50: NCI/ADR-RES
Protocol: The multidrug resistant cell line, NCI/ADR-RES, was obtained from the DTP Human Tumor Cell Line Screen (Developmental Therapeutics Program, NCI). Both cell lines were maintained in Dulbecco's modified Eagle's medium supplemented with 10% fetal bovine serum and the antibiotics penicillin and streptomycin. […] Stocks of M4N and paclitaxel (Sigma-Aldrich, St. Louis, Mo.) were prepared in dimethyl sulfoxide (DMSO) and added to the cell culture medium so that the final concentration of DMSO was one percent. Aqueous stocks of Dox (Sigma-Aldrich) were prepared and filter sterilized before dilution into growth medium.
NCI/ADR-RES cells were seeded at a density of 2×10^4 cells per well in 24 well plates and 24 h later the growth medium was supplemented with M4N, Dox, paclitaxel or combinations of M4N with Dox or M4N with paclitaxel. MAN was used at concentrations between 1.5 and 48 μM. For the combination of MAN and Dox a constant molar ratio of 2.4:1 (M4N:Dox) was used and for M4N and paclitaxel the ratio was 20:1 (M4N:paclitaxel). Three days after drug addition cytoxicity was assessed with the SRB assay (14) with 540 and 690 nm (reference) absorbance measured with a Power Wave 200 microplate reader (Bio-Tek Instruments, Winooski, Vt.).
The combination index (CD isobologram method of Chou and Talalay (16, 17, 18, 19) which is based on the median effect principle, was used to calculate synergism or antagonism for the combined drug effects. Dose-effect curves for each drug, singly and in combination, in serially-diluted concentrations were plotted using the median-effect equation and plot (18, 20) and the CI equation and plot (19). CI values at different effect and dose levels and isobolograms were generated automatically using the computer software CompuSyn (20). With this method, additive, synergistic or antagonistic effects are indicated by CI values of 1, <1, and >1, respectively. Comparison of the ratio of doses required to reach a given effect level for each single drug and the drugs in combination was used to determine the dose-reduction index (DRI).

[8] = test system: NCI/ADR-RES xenografts; test: NCI/ADR-RES xenografts in nude mice, M4N i.p. or oral; format: in vivo; conditions: 21 days systemic treatment, IP injection daily or oral feeding in food balls
Protocol: as §1

[9] = test system: MCF-7; conditions: MCF-7; read-out: IC50 from previous studies; cited from earlier work
[10] = test system: MDR1 mRNA; test: RT-PCR of MDR1 mRNA in NCI/ADR-RES cells; format: cell-based, human; conditions: 20 μM M4N, three days
Protocol: as §2
The RT-PCR products were separated by agarose gel electrophoresis and stained with ethidium bromide. Relative band intensities were quantified by ImageJ software (NIH, Bethesda, Md.).
We next examined the effect of M4N on MDR1 gene expression to determine whether the observed synergy between M4N and Dox and paclitaxel in multidrug resistant cells is the result of reversal of the MDR phenotype. We postulated that M4N, through its ability to inhibit Sp1 binding, might down regulate MDR1 gene expression. To examine this possibility, NCI/ADR-RES cells were exposed to 0, 5, 10 and 20 μM M4N for three days, after which total RNA and protein were examined for levels of MDR1 mRNA and Pgp. […] The levels of Pgp were normalized to cyclin B1, whose expression, according to our previous results, is unaffected by M4N (4, 5).

[11] = solubility in water; format: physicochemical
[12] = M4N/Dox combination 2.4:1, NCI/ADR-RES
[13] = M4N/paclitaxel combination 20:1, NCI/ADR-RES

## COc1ccc(C[C@@H](C)[C@@H](C)Cc2ccc(OC)c(OC)c2)cc1OC [M4N, tetra-o-methyl nordihydroguaiaretic acid]
[1]
  M4N required to achieve a total cell arrest: 40 µM
[2]
  systemic side effects (gastrointestinal problems, anemia, hair loss): has not caused the systemic side effects
[3]
  tumor sizes of xenografts: greatly reduced the tumor sizes
[4]
  induction of MDR1 expression by Dox: abolished
[5]
  amount of drug in the blood: barely detectable
[6]
  M4N required to achieve a total cell arrest: 20 µM
[7]; [12]
  DRI value at ED75: 5.94
  DRI value at ED90: 24.26
  DRI value at ED95: 63.16
[7]; [13]
  DRI value at ED75: 3.98
  DRI value at ED90: 5.76
  DRI value at ED95: 7.40
[7]; three days, combinations at molar ratio 2.4:1 (M4N:Dox) or 20:1 (M4N:paclitaxel), given as M4N + second drug, read-out: Dm, median effect dose (concentration that inhibits cell growth by 50%)
  IC50: 9.14 µM and 8.19 µM
[7]; single agent, read-out: average IC50
  IC50: 8.67 µM
[8]
  tumor sizes of xenografts: greatly reduced the tumor sizes
[9]
  IC50: ~7 µM
[10]
  level of MDR1 mRNA, of the untreated value, normalized to GAPDH: 36.3%
[11]
  solubility in aqueous solution: limited solubility

From patent US20080207532A1, “Use of Nordihydroguaiaretic Acid Derivatives in the Treatment of Drug Resistant Cancer, Viral and Microbial Infection” (Johns Hopkins University, priority 2004, published 2008)
